Source: patent US8030339B2, “Imidazole derivatives for the treatment of anxiety and related diseases” (Neurosearch A/S, priority 2005, dated 2011)

Tests used:
[1] = molecular target: benzodiazepine binding site on GABAA receptors; test: In vitro inhibition of 3H-flunitrazepam (3H-FNM) binding; design: species or system rat; settings: cerebral cortex membranes from male Wistar rats; 3H-FNM 1 nM; 40 min at 2° C.
Method: In Vitro Inhibition of […] (3H-FNM) Binding
The GABA recognition site and the benzodiazepine modulatory unit can selectively be labelled with ^3H-flunitrazepam.
Preparations are performed at 0-4° C. unless otherwise indicated. Cerebral cortex from male Wistar rats (150-200 g) is homogenised for 5-10 sec in 20 ml Tris-HCl (30 mM, pH 7.4) using an Ultra-Turrax homogeniser. The suspension is centrifuged at 27,000×g for 15 min and the pellet is washed three times with buffer (centrifuged at 27,000×g for 10 min). The washed pellet is homogenized in 20 ml of buffer and incubated on a water bath (37° C.) for 30 min to remove endogenous GABA and then centrifuged for 10 min at 27,000×g. The pellet is then homogenized in buffer and centrifuged for 10 min at 27,000×g. The final pellet is resuspended in 30 ml buffer and the preparation is frozen and stored at −20° C.
The membrane preparation is thawed and centrifuged at 2° C. for 10 min at 27,000×g. The pellet is washed twice with 20 ml 50 mM Tris-citrate, pH 7.1 using an Ultra-Turrax homogeniser and centrifuged for 10 min at 27,000×g. The final pellet is resuspended in 50 mM Tris-citrate, pH 7.1 (500 ml buffer per g of original tissue), and then used for binding assays. Aliquots of 0.5 ml tissue are added to 25 μl of test solution and 25 μl of ^3H-FNM (1 nM, final concentration), mixed and incubated for 40 min at 2° C. Non-specific binding is determined using Clonazepam (1 μM, final concentration). After incubation the samples are added 5 ml of ice-cold buffer and poured directly onto Whatman GF/C glass fibre filters under suction and immediately washed with 5 ml ice-cold buffer. The amount of radioactivity on the filters is determined by conventional liquid scintillation counting. Specific binding is total binding minus non-specific binding.
25-75% inhibition of specific binding must be obtained, before calculation of an IC50.
The test value will be given as IC50 (the concentration (μM) of the test substance which inhibits the specific binding of ^3H-FNM by 50%).
Co is specific binding in control assays, and […]

SMILES | IC50 [1] | melting point
COc1ccc(F)cc1-c1cccc(-n2cnc(C(=O)c3ccccn3)c2)c1 [Compound 14, [1-(5′-Fluoro-2′-methoxy-biphenyl-3-yl)-1H-imidazol-4-yl]-pyridin-2-yl-methanone] | 2.7 nM | –
O=C(c1ccccc1)c1cn(-c2cccc(-c3ccccc3)c2)cn1 [Compound 8, (1-Biphenyl-3-yl-1H-imidazol-4-yl)-phenyl-methanone] | 36 nM | –
O=C(c1cn(-c2cccc(-c3ccccc3)c2)cn1)n1cccn1 [Compound 178, (1-Biphenyl-3-yl-1H-imidazol-4-yl)-pyrazol-1-yl-methanone] | 5.9 nM | 124 to 127 °C
